Reference: PMC6272185 (Molecules, 2015)
Values after ≈ are worked out from the molar mass of the structure shown. Where two headings read alike, the source gives them in different places.

Tests used:
[1] = tested on: iNOS expression in RAW 264.7 macrophages; experiment: iNOS expression by western blot in LPS-stimulated macrophages; assay type: cell-based, murine; settings: 20 µg/mL, LPS 1 µg/mL, 24 h
Procedure: (§1) RAW 264.7 macrophages were plated in Petri dishes (2 × 10^7 cells·mL^−1) and incubated for 24 h at 37 °C in 5% CO2 atmosphere. […] The resulted cellular monolayers were washed with PBS 1×, scraped and resuspended in PBS 1×, transferred and centrifuged to obtain cell pellets. The cells were lysed in buffer (10% SDS, 20% glycerol, 5% 2-mercaptoethanol, 2% bromophenol blue and 1 M Tris HCl, pH 6.8, containing protease inhibitors). Protein concentrations were estimated by Bradford method. For western blot analysis, cellular extract samples (60 µg) were submitted to 10% SDS–polyacrylamide gel electrophoresis under […] conditions and transferred to nitrocellulose membranes (Amersham Pharmacia Biotech, Uppsala, Sweden). After blocking with PBS-T (0.5% Tween-20) containing 2.5% (w/v) bovine serum albumin, the membranes were incubated with antibodies against iNOS (1:1000) and COX-2 (1:500) for 1 h at room temperature. After incubation period, the membranes were washed followed by treatment with horseradish peroxidase-conjugated secondary antibody. The resulting membranes were developed using diaminobenzidine/H2O2 as a substrate for peroxidase. In all electrophoresis experiments, a protein standard ladder (Full Range Rainbow-GE Healthcare, Piscataway, NJ, USA) was used to estimate proteins molecular size. Protein bands densitometric analysis was performed using ImageJ software for Windows (NIH, Bethesda, MD, USA). The value for stimulated condition (LPS- treated cells) was set as 1 and other conditions were recalculated correspondingly to allow ratio comparisons.

[2] = Macrophage cytotoxicity, LDH release assay; assay type: cell-based, murine; settings: mouse, RAW 264.7 macrophages stimulated with LPS; LPS-stimulated RAW 264.7, LDH release; mean ± SD, n = 3
[3] = tested on: PGE2 production by LPS-stimulated RAW 264.7 macrophages; experiment: Inhibition of PGE2 production by LPS-stimulated macrophages (ELISA); assay type: cell-based, murine; settings: Mus musculus, RAW264.7, 24 h, read-out: IC50 PGE2
Procedure: (§2) Murine RAW 264.7 macrophage cell line (American Type Culture Collection, Manassas, VA, USA), was cultured in Dulbecco’s modified Eagle’s medium (DMEM-F12) supplemented with 10% Fetal Bovine Serum (FBS) and gentamicin (50 µg/mL) in 5% CO2 atmosphere at 37 °C. For experiments, the cells were seeded in 96-well plates (1 × 10^5 cells/well) and incubated for 24 h at 37 °C. For macrophage stimulation, the cell cultures were treated with LPS (1 µg/mL) and incubated for additional 24 h in the presence or absence of the chalcone samples (samples 1–41) that were used at concentrations of 100, 20, 4 and 0.8 µg/mL. In some experiments, a nitric oxide (NO) inhibitor, L-NMMA (20 μg/mL), was used as a positive control of NO inhibition, and a non-steroidal anti-inflammatory drug indomethacin, known to inhibit production of prostaglandins, was used as a positive control of PGE2 inhibition.
(§3) The frozen culture supernatants samples were thawed and immediately analyzed using commercially available enzyme-linked immunosorbent assay (ELISA) kits to measure TNF-α, IL-1β (BD Biosciences) and PGE2 (R&D Systems, Minneapolis, MN, USA), according to the manufacturer’s instructions. Standard curves for each mediator were generated using reference cytokine concentrations supplied by the manufacturer. Nitric oxide (NO) generation was assessed by the Griess method to measure nitrites, which are stable breakdown NO products.

M. tuberculosis H37Rv = experiment: microbe, parasite or virus in culture; assay type: cell-based, Mycobacterium tuberculosis; settings: for MIC90 / MIC50: Mycobacterium tuberculosis
[4] = tested on: RAW 264.7 macrophages infected with M. tuberculosis H37Rv; experiment: Toxicity for infected macrophages, LDH assay; assay type: cell-based, murine; settings: Mus musculus, RAW264.7, 96 h; infected RAW 264.7, 4 days treatment; Figure 3D
Procedure: Cytotoxic effects of chalcone samples on RAW 264.7 cell viability in cultures stimulated with LPS were determined using the LDH (lactate dehydrogenase) release assay as previously described. Cytoplasmic enzyme LDH release into cell culture supernatants was detected using a commercial LDH kit (Doles, GO, Brazil). Cell death was expressed as percentage of LDH release, which was calculated using the following formula: percentage of LDH release = 100 × (test LDH release − spontaneous release)/(maximum release − spontaneous release). The maximum release was determined following dissolution of cell monolayers using 1% (vol/vol) Triton X-100. The spontaneous release was determined in supernatants from cultures incubated in the presence of LPS and DMSO, used as a solvent for chalcone samples.
(§4) RAW 264.7 macrophages were plated (1 × 10^5 cells/well) in antibiotic-free DMEM-F12 medium supplemented with 10% fetal bovine serum and incubated for 24 h. Prior to infection, mycobacterial suspensions were sonicated for 1 minute to disperse clumps and optical densities were adjusted to 0.1. The macrophage cultures were infected at a MOI of 1:1 (macrophage: bacterium). Phagocytosis was allowed to progress for 3 h. After 3 h, extracellular mycobacteria were removed by washing with PBS 1X and the infected cell monolayers were treated for 4 days with chalcone samples or rifampicin. Macrophage viability was monitored by LDH assay and was over 80% in all experiments. On day 4 after infection, cells were lysed cells with 1% saponin to release intracellular bacteria. Lysate aliquots were diluted 10-fold in PBS, plated in triplicates on 7H10 agar plates and incubated at 37 °C. After 21 days, total CFU were determined.

[5] = tested on: COX-2 expression in RAW 264.7 macrophages; experiment: COX-2 expression by western blot in LPS-stimulated macrophages; assay type: cell-based, murine; settings: 20 µg/mL, LPS 1 µg/mL, 24 h
Procedure: as §1

M. bovis BCG = experiment: microbe, parasite or virus in culture; assay type: cell-based, Mycobacterium bovis BCG; settings: for MIC50 / MIC90: Mycobacterium tuberculosis variant bovis BCG, BCG, 168 h; for MIC50: read-out: MIC50 M. bovis BCG; for MIC90: read-out: MIC90 M. bovis BCG
[6] = tested on: TNF-α production by LPS-stimulated RAW 264.7 macrophages; experiment: Inhibition of TNF-α production by LPS-stimulated macrophages (ELISA); assay type: cell-based, murine; settings: for IC50: Mus musculus, RAW264.7, LPS (1 µg/mL)-stimulated RAW 264.7, 24 h, mean ± SD, n = 3, read-out: IC50 TNF-α
M. tuberculosis M299 = experiment: microbe, parasite or virus in culture; assay type: cell-based, Mycobacterium tuberculosis; settings: Mycobacterium tuberculosis, M299, 120 h
[7] = tested on: M. tuberculosis strain H37Rv in RAW 264.7 macrophages; experiment: Intracellular growth of M. tuberculosis H37Rv in infected macrophages (CFU); assay type: cell-based, Mycobacterium tuberculosis; settings: infected RAW 264.7, MOI 1:1, 4 days, Figure 3C; for MIC50: Mycobacterium tuberculosis, H37RV, 96 h
Procedure: as §4

[8] = tested on: IL-1β production by LPS-stimulated RAW 264.7 macrophages; experiment: Inhibition of IL-1β production by LPS-stimulated macrophages (ELISA); assay type: cell-based, murine; settings: for inhibition of IL-1β: LPS-stimulated RAW 264.7; for IC50: Mus musculus, RAW264.7, 24 h, read-out: IC50 IL-1β
Procedure: as §2, §3

[9] = tested on: NO production by LPS-stimulated RAW 264.7 macrophages; experiment: Inhibition of NO production by LPS-stimulated macrophages (Griess); assay type: cell-based, murine; settings: Mus musculus, RAW264.7, 24 h, LPS (1 µg/mL)-stimulated RAW 264.7, 24 h; mean ± SD, n = 3; read-out: IC50 NO
[10] = H37RV, 120 h, read-out: MIC50 M. tuberculosis H37Rv
[11] = Table 5, same values as M. tuberculosis H37Rv in Table 3, read-out: MIC50

Compound	inhibition of iNOS expression [1]	IC50 [2]	IC50 [3]	MIC90 (M. tuberculosis H37Rv; H37RV, 120 h)	MIC50 (M. tuberculosis H37Rv; [10])	MIC50 (M. tuberculosis H37Rv; [11])	IC50 [4]	abrogation of COX-2 expression [5]	MIC50 (M. bovis BCG)	MIC90 (M. bovis BCG)	IC50 [6]	MIC50 (M. tuberculosis M299)	MIC90 (M. tuberculosis M299)	MIC50 [7]	inhibition of IL-1β [8]	IC50 [8]	also measured
O=C(/C=C/c1ccc2c(c1)OCO2)c1ccccc1 [Chalcone 5]	almost completely inhibit	> 396 µM	23.1 ± 2.4 µM	303 ± 5.4 µM (≈ 76.5 µg/mL)	12.7 ± 1.9 µM (≈ 3.2 µg/mL)	12.7 ± 1.9 µM (≈ 3.2 µg/mL)	> 396 µM	most potent in abrogation	14.5 ± 6.1 µM (≈ 3.66 µg/mL)	75.3 ± 8.4 µM (≈ 19 µg/mL)	48.1 ± 7.6 µM	11.7 ± 3.4 µM (≈ 2.95 µg/mL)	289.6 ± 0.7 µM (≈ 73.1 µg/mL)	3.8 ± 0.1 µM (≈ 0.959 µg/mL)	potent inhibitors	57.9 ± 4.9 µM	MIC90 M. tuberculosis H37Rv (M. tuberculosis H37Rv): 303.2 ± 5.4 µM (≈ 76.5 µg/mL); MIC90 M. bovis BCG (M. bovis BCG; culture, 7 days, MTT): 75.3 ± 8.4 µM (≈ 19 µg/mL); inhibition of TNF-α ([6]; LPS-stimulated RAW 264.7): strongly inhibit; MIC50 intracellular M. tuberculosis H37Rv [7]: 3.8 ± 0.1 µM (≈ 0.959 µg/mL)
O=C(/C=C/c1ccc(Cl)cc1)c1ccccc1 [Chalcone 3]	almost completely inhibit	400 ± 4.9 µM	19.9 ± 2.6 µM	372.7 ± 3.6 µM (≈ 90.5 µg/mL)	13 ± 3.3 µM (≈ 3.16 µg/mL)	13 ± 3.3 µM (≈ 3.16 µg/mL)	307 ± 5.1 µM	most potent in abrogation	20.7 ± 6.4 µM (≈ 5.02 µg/mL)	170 ± 5.4 µM (≈ 41.2 µg/mL)	60.5 ± 4.7 µM	18.4 ± 3.9 µM (≈ 4.46 µg/mL)	373.9 ± 1.4 µM (≈ 90.7 µg/mL)	12.3 ± 1 µM (≈ 2.99 µg/mL)	potent inhibitors	46.6 ± 4.6 µM	IC50 [9]: 31.9 ± 4.6 µM
